Source: patent US20230095836A1, “SUBSTITUTED 5,6-DIPHENYL-3(2H)-PYRIDAZINONES FOR USE AS FUNGICIDES” (FMC Corporation, priority 2020, published 2023)

Tests used:
[1] = system: Phakopsora pachyrhizi; test: Test D: test solution sprayed on soybean seedlings, inoculated next day with Phakopsora pachyrhizi (Asian soybean rust); visual disease rating (100 = 100% disease control, 0 = no control; dash = not tested); assay type: in vivo
Method in brief: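 Preventive spray test: soybean seedlings treated to run-off with ppm-level suspensions (acetone/water 50/50, 250 ppm PEG400), spore-inoculated one day later. Held 24 h at 22 °C in saturated air, then 8 days at 22 °C; disease control scored visually versus untreated plants, 0 = none, 100 = complete.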

[2] = system: Blumeria graminis f. sp. tritici; test: Test C: test suspension sprayed on wheat seedlings, inoculated next day with Blumeria graminis f. sp. tritici (wheat powdery mildew); visual disease rating (100 = 100% disease control, 0 = no control; dash = not tested); assay type: in vivo
Method in brief: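 Visual ratings of disease control (0–100, relative to controls) were made 8 days after inoculation with B. graminis f. sp. tritici spore dust. Plants were held at 20 °C. Compound was applied as a spray to run-off one day before inoculation.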

[3] = system: Botrytis cinerea; test: Test E: test suspension sprayed on tomato seedlings, inoculated next day with Botrytis cinerea (tomato Botrytis); visual disease rating (100 = 100% disease control, 0 = no control; dash = not tested); assay type: in vivo
Method in brief: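 Spores were applied one day after spraying the seedlings to run-off. Incubation was 48 h saturated at 20° C, then 3 days in a 24° C growth chamber. Visual ratings, relative to untreated controls, run from 0 (no control) to 100 (complete control).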

[4] = system: Alternaria solani; test: Test F: test suspension sprayed on tomato seedlings, inoculated next day with Alternaria solani (tomato early blight); visual disease rating (100 = 100% disease control, 0 = no control; dash = not tested); assay type: in vivo
Method in brief: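 Visual ratings of % disease control versus controls were made after inoculated plants spent 48 h at 27° C. in saturated air plus 3 days at 20° C. The compound suspension had been sprayed to run-off one day before spore inoculation.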

[5] = system: Zymoseptoria tritici; test: Test A: test solution sprayed on wheat seedlings, inoculated next day with Zymoseptoria tritici (wheat leaf blotch); disease rating (100 = 100% disease control, 0 = no control; dash = not tested); assay type: in vivo
Method in brief: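 Preventive spray test: compound applied to run-off one day before spore inoculation of wheat seedlings. Incubation was 48 h saturated humidity at 24° C followed by 17 days at 20° C. Disease then scored 0–100 as % control versus untreated plants.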

[6] = system: Puccinia recondita f. sp. tritici; test: Test B: test solution sprayed on wheat seedlings, inoculated next day with Puccinia recondita f. sp. tritici (wheat leaf rust); disease rating (100 = 100% disease control, 0 = no control; dash = not tested); assay type: in vivo
From the text: The resulting test suspensions were then used in Tests A-F. The test solution was sprayed to the point of run-off on wheat seedlings. […] A rating of 100 indicates 100% disease control and a rating of 0 indicates no disease control (relative to the controls). A dash (—) indicates the compound was not tested.

Structure (SMILES): COc1cc(OC)c(Cl)c(-c2nn(C)c(=O)c(Cl)c2-c2c(F)cccc2F)c1 [Compound 35, 4-chloro-6-(2-chloro-3,5-dimethoxyphenyl)-5-(2,6-difluorophenyl)-2-methyl-3(2H)-pyridazinone]
- pest or weed control at 250 ppm ([1]; 250 ppm): 100%
- pest or weed control at 250 ppm ([2]; 250 ppm): 100%
- pest or weed control at 250 ppm ([3]; 250 ppm): 99%
- melting point: 192 to 196 °C
- pest or weed control at 250 ppm ([4]; 250 ppm): 99%
- pest or weed control at 250 ppm ([5]; 250 ppm): 100%
- pest or weed control at 250 ppm ([6]; 250 ppm): 100%

Structure (SMILES): COc1cc(OC)cc(-c2nn(C)c(=O)c(Br)c2-c2c(F)cccc2F)c1 [Compound 34, 4-bromo-5-(2,6-difluorophenyl)-6-(3,5-dimethoxyphenyl)-2-methyl-3(2H)-pyridazinone]
- pest or weed control at 250 ppm ([1]; 250 ppm): 99%
- pest or weed control at 250 ppm ([2]; 250 ppm): 95%
- pest or weed control at 250 ppm ([3]; 250 ppm): 99%
- melting point: 153 to 157 °C
- pest or weed control at 250 ppm ([4]; 250 ppm): 99%
- pest or weed control at 250 ppm ([5]; 250 ppm): 100%
- pest or weed control at 250 ppm ([6]; 250 ppm): 89%

Structure (SMILES): COc1ccc(Cl)c(-c2nn(C)c(=O)c(Cl)c2-c2ccc(F)cc2Cl)c1 [Compound 83, 4-chloro-5-(2-chloro-4-fluorophenyl)-6-(2-chloro-5-methoxyphenyl)-2-methyl-3(2H)-pyridazinone]
- pest or weed control at 50 ppm ([1]; 50 ppm): 100%
- pest or weed control at 50 ppm ([2]; 50 ppm): 99%
- pest or weed control at 50 ppm ([3]; 50 ppm): 92%
- melting point: 165 to 168 °C
- pest or weed control at 50 ppm ([4]; 50 ppm): 100%
- pest or weed control at 50 ppm ([5]; 50 ppm): 100%
- pest or weed control at 50 ppm ([6]; 50 ppm): 100%

Structure (SMILES): COc1cc(OC)c(Cl)c(-c2nn(C)c(=O)c(C)c2-c2ccc(F)cc2Cl)c1 [Compound 66, 6-(2-chloro-3,5-dimethoxyphenyl)-5-(2-chloro-4-fluorophenyl)-2,4-dimethyl-3(2H)-pyridazinone]
- pest or weed control at 50 ppm ([1]; 50 ppm): 100%
- pest or weed control at 50 ppm ([2]; 50 ppm): 100%
- pest or weed control at 50 ppm ([3]; 50 ppm): 100%
- melting point: 140 to 143 °C
- pest or weed control at 50 ppm ([4]; 50 ppm): 100%
- pest or weed control at 50 ppm ([5]; 50 ppm): 100%
- pest or weed control at 50 ppm ([6]; 50 ppm): 100%

Structure (SMILES): COc1cc(OC)cc(-c2nn(C)c(=O)c(Cl)c2-c2c(F)cccc2F)c1 [Compound 36, 4-chloro-5-(2,6-difluorophenyl)-6-(3,5-dimethoxyphenyl)-2-methyl-3(2H)-pyridazinone]
- pest or weed control at 250 ppm ([1]; 250 ppm): 93%
- pest or weed control at 250 ppm ([2]; 250 ppm): 99%
- pest or weed control at 250 ppm ([3]; 250 ppm): 100%
- melting point: 150 to 154 °C
- pest or weed control at 250 ppm ([4]; 250 ppm): 99%
- pest or weed control at 250 ppm ([5]; 250 ppm): 100%
- pest or weed control at 250 ppm ([6]; 250 ppm): 100%

Structure (SMILES): COc1cc(OC)c([N+](=O)[O-])c(-c2nn(C)c(=O)cc2-c2c(F)cccc2F)c1 [Compound 13, 5-(2,6-difluorophenyl)-6-(3,5-dimethoxy-2-nitrophenyl)-2-methyl-3(2H)-pyridazinone]
- pest or weed control at 250 ppm ([1]; 250 ppm): 63%
- pest or weed control at 250 ppm ([2]; 250 ppm): 81%
- pest or weed control at 250 ppm ([3]; 250 ppm): 99%
- melting point: 174 to 178 °C
- pest or weed control at 250 ppm ([4]; 250 ppm): 9%
- pest or weed control at 250 ppm ([5]; 250 ppm): 94%
- pest or weed control at 250 ppm ([6]; 250 ppm): 99%

Structure (SMILES): COc1ccc(Cl)c(-c2nn(C)c(=O)c(Cl)c2-c2c(F)cccc2F)c1 [Compound 57, 4-chloro-6-(2-chloro-5-methoxyphenyl)-5-(2,6-difluorophenyl)-2-methyl-3(2H)-pyridazinone]
- pest or weed control at 50 ppm ([1]; 50 ppm): 99%
- pest or weed control at 50 ppm ([2]; 50 ppm): 99%
- pest or weed control at 50 ppm ([3]; 50 ppm): 99%
- melting point: 134 to 137 °C
- pest or weed control at 50 ppm ([4]; 50 ppm): 100%
- pest or weed control at 50 ppm ([5]; 50 ppm): 100%
- pest or weed control at 50 ppm ([6]; 50 ppm): 100%

Structure (SMILES): COc1cc(OC)c(Cl)c(-c2nn(C)c(=O)cc2-c2c(F)cccc2F)c1 [Compound 12, 6-(2-chloro-3,5-dimethoxyphenyl)-5-(2,6-difluorophenyl)-2-methyl-3(2H)-pyridazinone]
- pest or weed control at 250 ppm ([1]; 250 ppm): 100%
- pest or weed control at 250 ppm ([2]; 250 ppm): 100%
- pest or weed control at 250 ppm ([3]; 250 ppm): 99%
- melting point: 172 to 176 °C
- pest or weed control at 250 ppm ([4]; 250 ppm): 0%
- pest or weed control at 250 ppm ([5]; 250 ppm): 100%
- pest or weed control at 250 ppm ([6]; 250 ppm): 100%

Structure (SMILES): Cc1c(-c2ccc(F)cc2Cl)c(-c2ccc(F)cc2Cl)nn(C)c1=O [Compound 44, 5,6-bis(2-chloro-4-fluorophenyl)-2,4-dimethyl-3(2H)-pyridazinone]
- pest or weed control at 50 ppm ([1]; 50 ppm): 100%
- pest or weed control at 50 ppm ([2]; 50 ppm): 100%
- pest or weed control at 50 ppm ([3]; 50 ppm): 93%
- melting point: 126 to 129 °C
- pest or weed control at 50 ppm ([4]; 50 ppm): 100%
- pest or weed control at 50 ppm ([5]; 50 ppm): 100%
- pest or weed control at 50 ppm ([6]; 50 ppm): 100%

Structure (SMILES): COc1cc(OC)c(Cl)c(-c2nn(C)c(=O)c(OC)c2-c2ccc(F)cc2Cl)c1 [Compound 80, 6-(2-chloro-3,5-dimethoxyphenyl)-5-(2-chloro-4-fluorophenyl)-4-methoxy-2-methyl-3(2H)-pyridazinone]
- pest or weed control at 50 ppm ([1]; 50 ppm): 100%
- pest or weed control at 50 ppm ([2]; 50 ppm): 100%
- pest or weed control at 50 ppm ([3]; 50 ppm): 99%
- melting point: 130 to 133 °C
- pest or weed control at 50 ppm ([4]; 50 ppm): 100%
- pest or weed control at 50 ppm ([5]; 50 ppm): 100%
- pest or weed control at 50 ppm ([6]; 50 ppm): 100%

Structure (SMILES): COc1cc(OC)cc(-c2nn(C)c(=O)cc2-c2c(F)cccc2F)c1 [Compound 38, 5-(2,6-difluorophenyl)-6-(3,5-dimethoxyphenyl)-2-methyl-3(2H)-pyridazinone]
- pest or weed control at 250 ppm ([1]; 250 ppm): 0%
- pest or weed control at 250 ppm ([2]; 250 ppm): 81%
- pest or weed control at 250 ppm ([3]; 250 ppm): 98%
- melting point: 132 to 136 °C
- pest or weed control at 250 ppm ([4]; 250 ppm): 0%
- pest or weed control at 250 ppm ([5]; 250 ppm): 98%
- pest or weed control at 250 ppm ([6]; 250 ppm): 99%

Structure (SMILES): COc1ccc(Cl)c(-c2nn(C)c(=O)c(C)c2-c2c(F)cccc2F)c1 [Compound 68, 6-(2-chloro-5-methoxyphenyl)-5-(2,6-difluorophenyl)-2,4-dimethyl-3(2H)-pyridazinone]
- pest or weed control at 50 ppm ([1]; 50 ppm): 100%
- pest or weed control at 50 ppm ([2]; 50 ppm): 100%
- pest or weed control at 50 ppm ([3]; 50 ppm): 99%
- melting point: 135 to 138 °C
- pest or weed control at 50 ppm ([4]; 50 ppm): 100%
- pest or weed control at 50 ppm ([5]; 50 ppm): 100%
- pest or weed control at 50 ppm ([6]; 50 ppm): 100%

Structure (SMILES): CCn1nc(-c2ccc(F)cc2Cl)c(-c2ccc(F)cc2Cl)cc1=O [Compound 11]
- Test D disease control rating ([1]; 250 ppm): 0%
- Test C disease control rating ([2]; 250 ppm): 64%
- Test E disease control rating ([3]; 250 ppm): 87%
- Test F disease control rating ([4]; 250 ppm): 0%
- Test A disease control rating ([5]; 250 ppm): 2%
- Test B disease control rating ([6]; 250 ppm): 9%

Structure (SMILES): Cn1nc(-c2cccc(Cl)c2F)c(-c2ccc(F)cc2Cl)c(Cl)c1=O [Compound 105]
- Test D disease control rating ([1]; 50 ppm): 79%
- Test C disease control rating ([2]; 50 ppm): 99%
- Test E disease control rating ([3]; 50 ppm): 96%
- Test F disease control rating ([4]; 50 ppm): 99%
- Test A disease control rating ([5]; 50 ppm): 100%
- Test B disease control rating ([6]; 50 ppm): 99%

Structure (SMILES): Cn1nc(-c2ccc(F)cc2Cl)c(-c2ccc(F)cc2Cl)c(CO)c1=O [Compound 168]
- Test D disease control rating ([1]; 50 ppm): 0%
- Test C disease control rating ([2]; 50 ppm): 72%
- Test E disease control rating ([3]; 50 ppm): 81%
- Test F disease control rating ([4]; 50 ppm): 0%
- Test A disease control rating ([5]; 50 ppm): 100%
- Test B disease control rating ([6]; 50 ppm): 96%

Structure (SMILES): COc1ccc(Br)c(-c2nn(C)c(=O)c(Cl)c2-c2ccc(F)cc2Cl)c1 [Compound 118]
- Test D disease control rating ([1]; 50 ppm): 100%
- Test C disease control rating ([2]; 50 ppm): 99%
- Test E disease control rating ([3]; 50 ppm): 98%
- Test F disease control rating ([4]; 50 ppm): 100%
- Test A disease control rating ([5]; 50 ppm): 99%
- Test B disease control rating ([6]; 50 ppm): 100%

Structure (SMILES): COc1cccc(-c2nn(C)c(=O)c(OC)c2-c2ccc(F)cc2Cl)c1Cl [Compound 146]
- Test D disease control rating ([1]; 50 ppm): 96%
- Test C disease control rating ([2]; 50 ppm): 100%
- Test E disease control rating ([3]; 50 ppm): 98%
- Test F disease control rating ([4]; 50 ppm): 99%
- Test A disease control rating ([5]; 50 ppm): 100%
- Test B disease control rating ([6]; 50 ppm): 100%
